“Also recorded” adds a separate entry of the source.
Columns and labels:
[1] = system: wild-type female FVB mice; assay: BM transplantation in lethally irradiated wild-type mice with daily BADGE; format: in vivo, mouse
Protocol: BM transplants were performed in wild-type female FVB mice as described for FIG. 2 except that 30 mg/kg BADGE or control vehicle (DMSO 10%) were administered through daily intra-peritoneal injections from the day prior to irradiation until day 14 post-transplant. 4a. […] 4b. Colony forming unit assay (CFU) from the recovered donor BM.
Finally, it was tested whether pharmacologic antagonism of adipogenesis could enhance bone marrow engraftment in wild-type mice.
Thorax, tibias and tails for homeostasis studies were isolated from wildtype C57BL6/J mice. When BM transplantation was performed, B6.SJL-Ptprca Pep3b/BoyJ were used as donors to take advantage of the CD45.1/CD45.2 allelic system (Jackson Laboratories #0002014). Bone marrow transplantation and CFU-Spleen assays were performed on lethally irradiated mice (two 5.5Gy doses separated by 3 hrs) and cells were administered by tail vein injection within 24 hrs of lethal irradiation. For competitive transplantation, samples were competed against 250,000 recipient-matched competitor femoral bone marrow. FVB wildtype litter-mates mice were used as controls for FVB.A-ZIP/F1 fatless mice. During BM transplantation assays FVB or FVB.A-ZIP/F1 mice (CD45.1) received 200,000 MHC-matched (H^q) wildtype BM from DBA/1J mice (CD45.2). Secondary transplants were performed through recovery of the CD45.2 […] BM passed through the FVB wildtype or FVB.A-ZIP/F1 microenvironment, which was then transplanted into FVB (CD45.1) recipients together with 250,000 FVB (CD45.1) wildtype competitor BM cells. For pharmacological inhibition of adipocyte formation, BM transplants were performed in wild-type female FVB mice as described above, except that 30 mg/kg BADGE or control vehicle (DMSO 10%) were administered in daily intraperitoneal injections starting one day prior to irradiation and continuing until day 14 post-transplant. Solutions were made such that 500 mg BADGE (Fluka) was resuspended in 8.3 ml DMSO (Sigma) and diluted in PBS to a final concentration of 10% DMSO for administration at 30 mg/kg in 100 ul. Aliquots were stored at −20° C. and thawed daily. Multicolor flow cytometry was performed in a special order BD five-laser LSRII flow cytometer. Cell cycle analysis was performed with DAPI (Sigma) in cells fixed in 2% paraformaldehyde for 15 min at 4° C. For all statistical analysis an un-paired two-tailed Student's t-test was performed assuming experimental samples of equal variance. […]
Mice were lethally irradiated with 11-12Gy on a split dose separated by 2.5 h and BM transplants were performed within 24 h by tail-vein injection. Engraftment was measured monthly through eye bleed and FACS analysis with CD45.1-FITC (eBiosciences), CD45.2-PE or CD45.2-biotin, CD3-PE, CD19-PE, Mac-1-PE. […]

Wildtype BM = assay: Colony forming unit (CFU) assay of wildtype BM plated with BADGE in vitro; format: cell-based, mouse; conditions: BADGE 30 mg/kg vs DMSO vehicle control (0.5 μL/mL); after 8-10 days
Protocol: 14a. Wildtype BM was plated in the presence of BADGE 30 mg/kg, or DMSO vehicle control (0.5 μL/mL).
Colony forming unit (CFU) assays were performed in complete M3434 methylcellulose (Stem Cell Technologies) following the manufacturer's instructions. Colonies were scored on day 8-10 on coded plates for unbiased counts.

[2] = system: bone marrow adipocyte formation; conditions: in vitro and in vivo in models of streptozotocin-induced diabetes; cited from earlier work
[3] = system: whole bone marrow collected from the DBA/1J mouse strain; assay: Hematopoietic colony formation in methylcellulose (M3434) in the presence of PPAR gamma inhibitors; format: cell-based; conditions: 3 ml M3434 with 1.5 μL of working concentration of each compound; N=2
Protocol: Progenitor activity was measured by formation of hematopoietic colonies in methylcellulose (M3434) from whole bone marrow collected from the DBA/1J mouse strain. Cells were plated in 3 ml M3434 along with 1.5 μL of the working concentration of each compound.

patients = patients treated with the PPARγ agonist; cited from earlier work

CC(C)(c1ccc(OCC2CO2)cc1)c1ccc(OCC2CO2)cc1 (centres unmarked) [BADGE, Bisphenol-A-DiGlycidyl-Ether]
White blood cell (WBC) / leukocyte counts in peripheral blood in the post-transplant period ([1]; 30 mg/kg BADGE daily i.p. from day prior to irradiation until day 14 post-transplant, vs vehicle (DMSO 10%)): Higher peripheral blood leukocyte counts; also recorded: accelerated recovery | Colony forming units (CFU) from the recovered donor BM ([1]; 30 mg/kg BADGE daily i.p., donor CD45.2 BM recovered day 17 post-transplant): enrichment in colony forming units | BM adipocyte formation by H&E staining of femurs ([1]; BADGE for two weeks following BM transplantation, mice sacrificed day 17 post-transplant): successful inhibition of BM adipocyte formation | Hematopoietic recovery after BM transplant ([1]; pharmacologic inhibition of adipocyte formation with BADGE): enhances hematopoietic recovery | Ability to form CFUs (hematopoietic colony formation) in vitro (Wildtype BM): does not enhance hematopoietic colony formation; also recorded: No difference | Bone marrow adipocyte formation [2]: prevent bone marrow adipocyte formation

O=C(Nc1ccncc1)c1cc([N+](=O)[O-])ccc1Cl [T0070907, 2-chloro-5-nitro-N-4-pyridinyl-benzamide]
Number of hematopoietic colonies relative to vehicle control [3]: fewer colonies relative to the vehicle control

CN(CCOc1ccc(CC2SC(=O)NC2=O)cc1)c1ccccn1 (centres unmarked) [rosiglitazone]
Adverse haematological effect in treated patients (patients): myelosuppression
